Test results: ChEMBL document CHEMBL5291721, “A preclinical secondary pharmacology resource illuminates target-adverse drug reaction associations of marketed drugs” (Nat Commun, 2023)

Experiments:
[1] = target: T1, Adenosine receptor A3 (Homo sapiens, UniProt P0DMS8)
T1 sequence (P0DMS8 whole entry): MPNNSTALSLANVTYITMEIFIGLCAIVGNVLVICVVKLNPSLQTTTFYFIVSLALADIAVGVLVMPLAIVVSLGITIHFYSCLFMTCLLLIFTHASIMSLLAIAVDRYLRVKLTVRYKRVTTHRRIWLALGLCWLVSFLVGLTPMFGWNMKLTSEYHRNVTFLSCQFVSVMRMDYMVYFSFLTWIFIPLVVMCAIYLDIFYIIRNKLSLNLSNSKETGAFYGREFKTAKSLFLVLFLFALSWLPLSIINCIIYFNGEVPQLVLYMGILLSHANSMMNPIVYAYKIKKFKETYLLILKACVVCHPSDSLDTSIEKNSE

[2] = target: T2, Progesterone receptor (Homo sapiens, UniProt P06401); assay type: functional
T2 sequence (P06401 whole entry): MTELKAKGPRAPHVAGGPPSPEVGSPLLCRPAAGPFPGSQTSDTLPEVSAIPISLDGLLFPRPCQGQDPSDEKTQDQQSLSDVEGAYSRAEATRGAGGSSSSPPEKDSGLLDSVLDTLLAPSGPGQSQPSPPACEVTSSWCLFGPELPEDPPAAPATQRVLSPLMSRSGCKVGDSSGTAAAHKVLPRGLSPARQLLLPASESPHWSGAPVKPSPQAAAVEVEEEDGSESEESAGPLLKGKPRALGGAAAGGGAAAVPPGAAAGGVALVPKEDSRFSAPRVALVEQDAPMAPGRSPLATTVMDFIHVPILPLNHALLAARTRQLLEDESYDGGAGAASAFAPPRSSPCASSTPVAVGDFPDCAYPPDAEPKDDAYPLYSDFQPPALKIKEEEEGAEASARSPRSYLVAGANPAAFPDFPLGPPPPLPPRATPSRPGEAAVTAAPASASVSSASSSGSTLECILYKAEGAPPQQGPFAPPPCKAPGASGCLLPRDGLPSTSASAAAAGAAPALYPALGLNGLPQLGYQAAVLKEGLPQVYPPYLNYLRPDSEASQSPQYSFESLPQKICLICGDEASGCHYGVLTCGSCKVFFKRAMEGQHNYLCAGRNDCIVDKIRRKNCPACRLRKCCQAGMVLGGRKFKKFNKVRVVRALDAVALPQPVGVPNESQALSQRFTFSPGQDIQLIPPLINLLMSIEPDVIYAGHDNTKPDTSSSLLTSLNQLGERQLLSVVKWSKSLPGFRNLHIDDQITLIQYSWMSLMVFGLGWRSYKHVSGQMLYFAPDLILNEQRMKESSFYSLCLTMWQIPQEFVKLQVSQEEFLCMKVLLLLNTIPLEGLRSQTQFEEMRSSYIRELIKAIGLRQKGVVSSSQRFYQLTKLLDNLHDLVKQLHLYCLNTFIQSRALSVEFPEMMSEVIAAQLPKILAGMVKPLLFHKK

[3] = target: Histamine H1 receptor (Homo sapiens, UniProt P35367)
[4] = target: Adenosine receptor A2a (Homo sapiens, UniProt P29274)
[5] = target: T3, Muscarinic acetylcholine receptor M2 (Homo sapiens, UniProt P08172); assay type: functional, cell-based
T3 sequence (P08172 whole entry): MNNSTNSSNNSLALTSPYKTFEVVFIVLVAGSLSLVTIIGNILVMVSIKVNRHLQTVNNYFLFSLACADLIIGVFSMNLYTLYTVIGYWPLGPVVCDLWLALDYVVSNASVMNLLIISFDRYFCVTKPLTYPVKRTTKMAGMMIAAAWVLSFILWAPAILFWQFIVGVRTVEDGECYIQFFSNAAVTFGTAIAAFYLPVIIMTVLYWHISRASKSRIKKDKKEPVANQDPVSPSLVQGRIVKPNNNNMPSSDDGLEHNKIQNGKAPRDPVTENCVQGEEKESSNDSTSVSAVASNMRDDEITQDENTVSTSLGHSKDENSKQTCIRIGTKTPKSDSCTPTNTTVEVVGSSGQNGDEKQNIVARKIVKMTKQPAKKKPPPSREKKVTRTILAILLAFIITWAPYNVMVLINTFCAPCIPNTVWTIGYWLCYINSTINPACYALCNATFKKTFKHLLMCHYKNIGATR

[6] = target: Sodium-dependent noradrenaline transporter (Homo sapiens, UniProt P23975)
[7] = target: Muscarinic acetylcholine receptor M3 (Homo sapiens, UniProt P20309)
[8] = target: T4, Thromboxane A2 receptor (Homo sapiens, UniProt P21731)
T4 sequence (P21731 whole entry): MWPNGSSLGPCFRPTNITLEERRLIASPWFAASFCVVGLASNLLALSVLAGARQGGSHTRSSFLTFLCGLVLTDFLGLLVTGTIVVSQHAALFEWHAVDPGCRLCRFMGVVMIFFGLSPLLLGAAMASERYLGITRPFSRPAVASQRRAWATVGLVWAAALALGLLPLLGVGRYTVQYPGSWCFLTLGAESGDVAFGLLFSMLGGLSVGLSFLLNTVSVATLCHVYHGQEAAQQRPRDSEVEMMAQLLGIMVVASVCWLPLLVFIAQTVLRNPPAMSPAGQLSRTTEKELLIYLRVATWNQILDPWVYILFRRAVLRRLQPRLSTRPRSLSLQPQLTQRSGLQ

[9] = target: T5, Cholecystokinin receptor type A (Homo sapiens, UniProt P32238)
T5 sequence (P32238 whole entry): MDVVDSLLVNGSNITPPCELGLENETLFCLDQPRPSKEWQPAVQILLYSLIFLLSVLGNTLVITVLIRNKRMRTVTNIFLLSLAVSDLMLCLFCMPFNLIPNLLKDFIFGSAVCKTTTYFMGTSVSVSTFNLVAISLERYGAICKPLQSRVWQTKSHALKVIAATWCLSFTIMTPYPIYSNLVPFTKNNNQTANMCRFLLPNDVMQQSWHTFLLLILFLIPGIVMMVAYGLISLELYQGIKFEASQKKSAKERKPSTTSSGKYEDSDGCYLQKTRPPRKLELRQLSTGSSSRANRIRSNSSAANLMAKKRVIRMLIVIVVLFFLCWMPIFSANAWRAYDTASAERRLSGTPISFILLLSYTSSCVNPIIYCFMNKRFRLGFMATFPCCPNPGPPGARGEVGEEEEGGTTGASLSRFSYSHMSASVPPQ

[10] = target: 5-hydroxytryptamine receptor 2B (Homo sapiens, UniProt P41595); assay type: functional, cell-based
[11] = target: Voltage-gated inwardly rectifying potassium channel KCNH2 (Homo sapiens, UniProt Q12809); assay type: functional
[12] = target: T2, Progesterone receptor; assay type: functional; remark: listed apart in the source
Note: assay procedure not described here.

Chain of Muscarinic acetylcholine receptor M3 (P20309 whole entry): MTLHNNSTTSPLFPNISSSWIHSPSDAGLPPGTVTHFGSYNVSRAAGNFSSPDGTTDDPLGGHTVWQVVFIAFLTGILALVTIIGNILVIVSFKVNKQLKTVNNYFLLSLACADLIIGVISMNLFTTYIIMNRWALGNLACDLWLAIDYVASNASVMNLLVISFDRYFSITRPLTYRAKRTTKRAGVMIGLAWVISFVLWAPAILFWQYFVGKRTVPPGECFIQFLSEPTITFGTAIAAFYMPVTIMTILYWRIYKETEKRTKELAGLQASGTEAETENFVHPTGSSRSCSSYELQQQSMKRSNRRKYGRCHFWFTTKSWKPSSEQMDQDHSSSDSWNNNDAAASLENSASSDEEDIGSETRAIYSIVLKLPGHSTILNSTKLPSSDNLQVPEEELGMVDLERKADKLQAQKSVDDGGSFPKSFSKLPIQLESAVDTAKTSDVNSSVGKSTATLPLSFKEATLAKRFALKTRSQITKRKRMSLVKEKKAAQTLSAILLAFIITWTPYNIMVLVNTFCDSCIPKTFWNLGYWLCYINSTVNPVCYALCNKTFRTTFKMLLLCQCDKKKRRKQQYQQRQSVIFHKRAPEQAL
Chain of Sodium-dependent noradrenaline transporter (P23975 whole entry): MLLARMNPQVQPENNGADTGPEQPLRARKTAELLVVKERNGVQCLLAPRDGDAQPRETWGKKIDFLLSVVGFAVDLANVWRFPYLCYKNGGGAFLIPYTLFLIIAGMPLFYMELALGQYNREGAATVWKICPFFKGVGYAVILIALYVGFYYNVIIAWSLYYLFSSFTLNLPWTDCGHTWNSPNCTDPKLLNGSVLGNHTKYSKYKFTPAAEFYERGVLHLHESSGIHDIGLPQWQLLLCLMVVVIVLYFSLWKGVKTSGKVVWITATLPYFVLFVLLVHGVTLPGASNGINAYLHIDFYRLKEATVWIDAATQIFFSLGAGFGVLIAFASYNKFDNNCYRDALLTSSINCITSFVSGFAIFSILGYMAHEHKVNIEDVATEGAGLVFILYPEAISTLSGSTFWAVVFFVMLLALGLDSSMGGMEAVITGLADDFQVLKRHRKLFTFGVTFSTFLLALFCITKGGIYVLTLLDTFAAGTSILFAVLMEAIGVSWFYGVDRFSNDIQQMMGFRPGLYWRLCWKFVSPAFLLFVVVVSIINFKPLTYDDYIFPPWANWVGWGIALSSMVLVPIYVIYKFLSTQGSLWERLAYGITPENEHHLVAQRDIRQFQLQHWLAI
Chain of Adenosine receptor A2a (P29274 whole entry): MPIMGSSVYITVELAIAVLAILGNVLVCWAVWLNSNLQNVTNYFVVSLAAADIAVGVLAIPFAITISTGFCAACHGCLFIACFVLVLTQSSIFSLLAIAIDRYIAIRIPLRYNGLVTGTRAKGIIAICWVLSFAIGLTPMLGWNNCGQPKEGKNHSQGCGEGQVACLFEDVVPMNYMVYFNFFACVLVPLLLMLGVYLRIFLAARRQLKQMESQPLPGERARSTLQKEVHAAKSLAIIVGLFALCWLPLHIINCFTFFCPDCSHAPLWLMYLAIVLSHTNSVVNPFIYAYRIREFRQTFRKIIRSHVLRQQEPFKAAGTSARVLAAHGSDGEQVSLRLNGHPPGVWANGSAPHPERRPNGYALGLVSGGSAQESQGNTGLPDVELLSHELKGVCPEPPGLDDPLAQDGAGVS
Chain of Voltage-gated inwardly rectifying potassium channel KCNH2 (Q12809 whole entry): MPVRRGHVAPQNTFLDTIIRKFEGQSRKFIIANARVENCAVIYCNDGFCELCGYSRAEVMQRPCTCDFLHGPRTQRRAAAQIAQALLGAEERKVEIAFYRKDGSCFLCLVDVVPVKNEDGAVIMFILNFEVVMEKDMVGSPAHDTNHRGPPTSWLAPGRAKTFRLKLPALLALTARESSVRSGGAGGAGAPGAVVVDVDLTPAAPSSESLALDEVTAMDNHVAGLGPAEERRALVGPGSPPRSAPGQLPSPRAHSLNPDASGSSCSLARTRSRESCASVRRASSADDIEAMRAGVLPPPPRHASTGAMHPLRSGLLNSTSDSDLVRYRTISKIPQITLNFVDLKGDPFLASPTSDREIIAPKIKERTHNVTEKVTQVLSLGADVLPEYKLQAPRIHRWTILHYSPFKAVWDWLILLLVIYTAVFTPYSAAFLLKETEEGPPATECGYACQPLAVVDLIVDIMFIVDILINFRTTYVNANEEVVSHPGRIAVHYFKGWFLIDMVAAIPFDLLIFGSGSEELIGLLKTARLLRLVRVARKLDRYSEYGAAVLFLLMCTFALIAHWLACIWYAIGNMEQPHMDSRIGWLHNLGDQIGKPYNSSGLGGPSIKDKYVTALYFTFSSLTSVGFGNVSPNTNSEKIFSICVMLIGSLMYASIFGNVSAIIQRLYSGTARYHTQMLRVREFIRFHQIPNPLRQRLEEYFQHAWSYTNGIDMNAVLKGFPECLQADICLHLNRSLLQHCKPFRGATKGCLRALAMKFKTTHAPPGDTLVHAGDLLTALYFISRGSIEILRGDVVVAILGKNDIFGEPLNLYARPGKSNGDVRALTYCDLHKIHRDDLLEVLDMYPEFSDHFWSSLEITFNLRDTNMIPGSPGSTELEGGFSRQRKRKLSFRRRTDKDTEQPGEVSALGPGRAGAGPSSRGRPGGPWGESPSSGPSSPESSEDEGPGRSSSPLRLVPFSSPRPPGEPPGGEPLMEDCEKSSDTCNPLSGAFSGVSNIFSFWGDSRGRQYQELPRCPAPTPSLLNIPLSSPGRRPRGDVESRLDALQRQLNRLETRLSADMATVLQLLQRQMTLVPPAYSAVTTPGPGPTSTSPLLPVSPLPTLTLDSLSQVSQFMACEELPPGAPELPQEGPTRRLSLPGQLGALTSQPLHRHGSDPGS
Chain of 5-hydroxytryptamine receptor 2B (P41595 whole entry): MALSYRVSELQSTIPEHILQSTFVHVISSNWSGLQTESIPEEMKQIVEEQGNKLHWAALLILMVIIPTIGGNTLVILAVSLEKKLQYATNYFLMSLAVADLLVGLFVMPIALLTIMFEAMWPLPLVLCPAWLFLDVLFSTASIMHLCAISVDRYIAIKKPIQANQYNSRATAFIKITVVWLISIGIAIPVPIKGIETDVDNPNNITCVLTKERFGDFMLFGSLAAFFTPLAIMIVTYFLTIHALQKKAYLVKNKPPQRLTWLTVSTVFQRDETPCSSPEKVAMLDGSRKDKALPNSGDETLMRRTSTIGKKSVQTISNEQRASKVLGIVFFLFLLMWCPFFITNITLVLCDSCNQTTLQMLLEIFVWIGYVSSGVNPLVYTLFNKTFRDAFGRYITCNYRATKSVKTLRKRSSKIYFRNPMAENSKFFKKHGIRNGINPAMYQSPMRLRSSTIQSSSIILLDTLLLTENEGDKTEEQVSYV
Chain of Histamine H1 receptor (P35367 whole entry): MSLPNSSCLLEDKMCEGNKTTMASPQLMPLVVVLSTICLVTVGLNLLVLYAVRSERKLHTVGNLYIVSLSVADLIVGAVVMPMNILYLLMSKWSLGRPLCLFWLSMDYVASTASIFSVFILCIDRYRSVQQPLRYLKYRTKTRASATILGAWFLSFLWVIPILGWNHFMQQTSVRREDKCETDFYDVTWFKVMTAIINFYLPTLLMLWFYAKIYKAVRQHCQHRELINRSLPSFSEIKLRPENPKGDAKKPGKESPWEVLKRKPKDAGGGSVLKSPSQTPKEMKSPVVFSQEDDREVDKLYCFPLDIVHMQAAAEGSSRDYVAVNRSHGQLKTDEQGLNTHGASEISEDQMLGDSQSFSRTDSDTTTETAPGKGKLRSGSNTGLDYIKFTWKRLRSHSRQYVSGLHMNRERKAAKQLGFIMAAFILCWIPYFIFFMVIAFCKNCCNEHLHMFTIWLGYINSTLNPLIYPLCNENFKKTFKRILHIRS

SMILES	AC50 [1] [µM]	AC50 [2] [µM]	AC50 [3] [µM]	AC50 [4] [µM]	AC50 [5] [µM]	AC50 [6] [µM]	AC50 [7] [µM]	AC50 [8] [µM]	AC50 [9] [µM]	AC50 [10] [µM]	AC50 [11] [µM]	AC50 [12] [µM]
CC(=O)[C@@]1(O)CC[C@H]2[C@@H]3C=C(Cl)C4=CC(=O)[C@@H]5C[C@@H]5[C@]4(C)[C@H]3CC[C@@]21C [CYPROTERONE]	> 10	0.003	> 10	> 10	> 10	> 10	> 30	> 10	> 10	> 10	> 30	
CC(=O)OCC(=O)[C@@]1(O)[C@H](C)C[C@H]2[C@@H]3CCC4=CC(=O)C=C[C@]4(C)[C@@]3(F)[C@@H](O)C[C@@]21C [DEXAMETHASONE ACETATE]	> 30		> 10	> 30	> 10	> 30	> 30	16	> 30	> 10	> 30	
Cc1ncc2n1-c1ccc(Cl)cc1C(c1ccccc1F)=NC2 [MIDAZOLAM]	> 30		> 10	> 30	> 10	> 30	> 30	> 30	> 30	> 10	> 30	
CCN(CC)CCN1C(=O)CN=C(c2ccccc2F)c2cc(Cl)ccc21 [FLURAZEPAM]	> 30		> 10	> 30	> 10	> 30	> 30	> 30	> 30	> 10	0.896	
Nc1cc(-c2ccncc2)c[nH]c1=O [INAMRINONE]	> 30			> 30	> 10	> 30		> 30	> 30	> 10	> 30	
NC(=O)CN1CCCC1=O	> 30	> 30		> 30	> 30	> 30		> 30	> 30	> 30	> 30	> 30
CC(=O)[C@]1(O)Cc2c(O)c3c(c(O)c2[C@@H](O[C@H]2C[C@H](N)[C@H](O)[C@H](C)O2)C1)C(=O)c1ccccc1C3=O [IDARUBICIN]	20	5.8		> 30		8.7		> 30	> 10		20.7	
Cn1cnc2c(F)c(Nc3ccc(Br)cc3Cl)c(C(=O)NOCCO)cc21 [SELUMETINIB]	> 30		> 10	> 30		> 30		> 30			> 30	
Cn1c(=O)cc(N2CCC[C@@H](N)C2)n(Cc2ccccc2C#N)c1=O [ALOGLIPTIN]	> 30		> 10	> 30		> 10		> 30	> 30			
COc1ccc2nc3cc(Cl)ccc3c(Nc3cc(CN4CCCC4)c(O)c(CN4CCCC4)c3)c2n1 [PYRONARIDINE]	15	14	21	> 30	> 30	8.1	25	> 30	> 30	> 30	0.28	
O=C1CN=C(c2ccccc2)c2cc([N+](=O)[O-])ccc2N1 [NITRAZEPAM]	> 10	> 10		> 10	> 10	> 10		> 10	> 10	> 10	> 30	> 10
CCCCCC(=O)O[C@]1(C(C)=O)CC[C@H]2[C@@H]3CCC4=CC(=O)CC[C@]4(C)[C@H]3CC[C@@]21C [HYDROXYPROGESTERONE CAPROATE]	18.4	0.003	> 30	> 30	> 30	> 30	> 30	> 30	> 30	> 30	> 30	
NC1CCN(c2nc3c(cc2F)c(=O)c(C(=O)O)cn3-c2ccc(F)cc2F)C1 (stereo not drawn) [TOSUFLOXACIN]	> 30	> 30		> 30	> 30	> 30		> 30	> 30	> 30	> 30	> 30
CCN(CC)CCNC(=O)c1cc(S(C)(=O)=O)ccc1OC [TIAPRIDE]	> 30	> 30		> 30	> 30	> 30		> 30	> 30	> 30	8.5	> 30
Nc1c2ccccc2nc2ccccc12 [AMINACRINE]											12	
O=C(O)CCCCC1CCSS1 (stereo not drawn) [LIPOIC ACID, ALPHA]											> 30	
O=C(O)CCNC(=O)c1ccccc1 [BETAMIPRON]	> 30	> 30		> 30	> 30	> 30		> 30	> 30	> 30	> 30	> 30
CCOC(=O)O[C@]1(C(=O)OCCl)CC[C@H]2[C@@H]3CCC4=CC(=O)C=C[C@]4(C)[C@H]3[C@@H](O)C[C@@]21C [LOTEPREDNOL ETABONATE]	> 30	0.024	> 30	> 30	> 30	> 30	> 30	> 30	> 30	> 30	> 30	
